Tests used:
[1] = test system: E. coli transformed with IPTG-inducible antisense clones; assay: Cell-based assay using antisense to genes encoding ribosomal proteins (Example 9)
From the text: First, pLex5BA (Krause et al., J. Mol. Biol. 274: 365 (1997), the disclosure of which is incorporated herein by reference in its entirety) vectors containing antisense constructs to either rplW or to elaD were introduced into separate E. coli cell populations. Vector introduction is a technique well known to those of ordinary skill in the art. The vectors of this example contain IPTG inducible promoters that drive the transcription of the antisense RNA in the presence of the inducer. However, those skilled in the art will appreciate that other inducible promoters may also be used. Suitable vectors are also well known in the art. Antisense clones to genes encoding different ribosomal proteins or to genes encoding proteins that are not involved in protein synthesis were utilized to test the effect of antisense transcription on cell sensitivity to the antibiotics known to bind to ribosomal proteins and inhibit protein synthesis. Antisense nucleic acids comprising a nucleotide sequence complementarty to the elaD, atpB&atpE, visC and yohH genes are referred to as AS-elaD, AS-atpB/E, AS-visC, AS-yohH respectively. These genes are not known to be involved in protein synthesis. […]
The cell populations containing vectors producing AS-elaD or AS-rplW were exposed to a range of IPTG concentrations in liquid medium to obtain the growth inhibitory dose curve for each clone (FIG. 1). First, seed cultures were grown to a particular turbidity measured by the optical density (OD) of the growth solution. […] The cells were grown for up to 15 hours and the extent of growth was determined by measuring the optical density of the cultures at 600 nm. […]
An example of a tetracycline dose response curve is shown in FIGS. 2A and 2B for the rplW and elaD genes, respectively. Cells were grown to log phase and then diluted into medium alone or medium containing IPTG at concentrations which give 20% and 50% growth inhibition as determined by IPTG dose response curves. […] The 96 well plates were incubated at 37° C. and the OD600 was read by a plate reader every 5 minutes for up to 15 hours. […]

[2] = test system: Staphylococcus aureus RN4220; assay: Inhibition of proliferation after xylose induction of antisense expression (Example 1); type: cell-based; conditions: 2% xylose
From the text: In the case of Staphylococcus aureus, a novel inducible promoter system, XylT5, comprising a modified T5 promoter fused to the xylO operater from the xyla promoter of Staphylococcus aureus was used. The promoter is described in U.S. Provisional Patent Application Ser. No. 60/259,434, the disclosure of which is incorporated herein by reference in its entirety. Transcription from this hybrid promoter is inducible by xylose.
In the case of Staphylococcus aureus, a shotgun library of Staphylococcus aureus genomic fragments was cloned into the vector pXyIT5-P15a, which harbors the Xy1T5 inducible promoter. […]
The purified library was then transformed into electrocompetent Staphylococcus aureus RN4220. […] Gridded plates were incubated 16 hours at 37° C., and then manually scored for arrayed colonies that were growth-compromised in the presence of xylose.
Arrayed colonies that were growth-sensitive on medium containing 2% xylose, yet were able to grow on similar medium lacking xylose, were subjected to further growth sensitivity analysis as follows: Colonies from the plate lacking xylose were manually picked and inoculated into individual wells of a 96 well culture dish containing LBG+CM15, and were incubated for 16 hours at 37° C. […] Clones that grew similarly at all dilutions on both media were scored as a negative and were no longer considered.

## CC[C@H]1OC(=O)[C@H](C)[C@@H](O[C@H]2C[C@@](C)(OC)[C@@H](O)[C@H](C)O2)[C@H](C)[C@@H](O[C@@H]2O[C@H](C)C[C@H](N(C)C)[C@H]2O)[C@](C)(O)C[C@@H](C)C(=O)[C@H](C)[C@@H](O)[C@]1(C)O [Erythromycin]
[1]; AS-atpB/E, AS-visC, AS-elaD, AS-yohH
  sensitivity of cells transcribing antisense to genes not involved in protein synthesis: do not
[1]; AS-rplL, AS-rplW, clones to L7/L12, L10, L22, L18, rRNA, Elongation Factor G, with vs without IPTG
  sensitivity of cells transcribing antisense to protein synthesis genes: increased sensitivity

## CCn1cc(C(=O)O)c(=O)c2ccc(C)nc21 [Nalidixic acid]
[1]; antibiotics which do not inhibit protein synthesis
  sensitivity of the clone transcribing antisense to rplL and rplJ (AS-rplL/J): does not show increased sensitivity

B1: S1M10000001A05: clone containing the nucleic acid which inhibits Staphylococcus aureus proliferation (nucleic acid, listed as Staphylococcus aureus)
DNA: GATCATATAGAATGACATCCGCTTCACGTATTAAACGCTCAGCCTTTTTCGTCAAATAATTCGGATTACCTGGACCCGCACCTATCAAGTAAACCTTGCCATATTCCTCTACAGACATATATATACGTTCCCGTCTGTAACTTCTACCTCATAAACATCTACACAACCTTCATCAGGTTCTTGAACAATACCTGTATTTAAATCAATTTTTT
[2]
  growth sensitivity upon induction of antisense transcription: inhibits Staphylococcus aureus proliferation
